Measured values as given in article PMC7710018, “Restoration of motor learning in a mouse model of Rett syndrome following long-term treatment with a novel small-molecule activator of TrkB” (Disease Models & Mechanisms, 2020).
pEC50: −log10 of the molar value. Values after ≈ are worked out from the molar mass of the structure shown. “Also recorded” adds a separate entry of the source.

Columns and labels:
8 different CYP enzymes = assay: CYP inhibition (Cerep); type: in vitro ADME; details: 10µM
Experimental: (§1) To evaluate the relative binding specificity of LM22A-4 ([Massa et al., 2010]) and PTX-BD4-3, binding to a broad range of 55 pharmacologically relevant receptors, including numerous neurotransmitter and G-protein coupled receptors was assessed using standard radioligand competition binding assays (ExpressSProfile) performed by Cerep, Inc. (Seattle, WA, USA). In addition, ADME-Tox analysis was performed by Cerep, Inc. All experimental conditions are described on the Cerep website (www.cerep.fr).
(§2) Aqueous Human CYP inhibition (10µM) AMES hERG solubility hepatocyte DNA testing
(§3) (µM) metabolic mutagenesis
(§4) PTX‐BD4‐3 200 >60 negative negative negative
Table S2. Solubility, metabolism and toxicity screens for LM22A-4 […]
and PTX-BD4-3. […]
Both compounds were negative in 3 different assays of in vitro toxicity; inhibition of 8 different CYP enzymes at 10 µM, DNA mutagenesis in 4 different strains of Salmonella typhimurium at 5, 10, 50 and 100 µM and cardiac toxicity, measured by […] of hERG channels at 0.1, 1 and 10 µM, where >50% inhibition of the tail current indicates significant cardiac toxicity.
(also on this page, place not known: Disease Models & Mechanisms: doi:10.1242/dmm.044685: Supplementary information Disease Models & Mechanisms • Supplementary information)

[1] = tested on: E16 mouse hippocampal neurons; assay: Hippocampal neuron survival (ViaLight assay and Tuj1-positive cell counts); type: cell-based; details: for neurotrophic activity in the presence of function-blocking anti-TrkB^ECD antibody: compounds 1000 nM, BDNF 20 ng/ml, vs control antibody
Excerpt: To further confirm that PTX-BD4-3 promotes biologically relevant activity through TrkB, we examined the effect of PTX-BD4-3 on survival of cultured hippocampal neurons, using two different methods (Fig. 3A-C). […] It would be expected that although there is a correlation between survival status and mitochondrial metabolic status, one could have some degree of variability in metabolic function for a given level of cell survival. […] Because the plateau effect of PTX-BD4-3 on survival was observed between 500 nM and 1000 nM, we chose 1000 nM as a standard concentration for subsequent mechanistic studies.
Fig. 3. […] (A) Fluorescence photomicrographs (original magnification, ×40) of Tuj1-immunostained E16 mouse hippocampal neuronal cultures treated with culture medium (CM) alone, BDNF, LM22A-4 or PTX-BD4-3 for 48 h. Scale bar: 10 μm. (B) Neuron survival dose-response curves for LM22A-4 and PTX-BD4-3 were generated using the ViaLight assay; data were normalized to survival achieved with 20 ng/ml (∼0.7 nM) BDNF and compared with wells receiving culture medium medium (CM) alone. n=10-32 wells per group derived from four to five independent experiments. (C) Survival analysis of hippocampal neurons treated with either 20 ng/ml BDNF, 500 nM or 1000 nM LM22A-4 or 500 nM or 1000 nM PTX-BD4-3 for 48 h. Tuj1-positive cells counts were normalized to the survival achieved with BDNF and compared with wells treated with […]. n=32-40 wells per group derived from six independent experiments. Statistical significance in B and C was determined by one-way ANOVA with Dunnett's post hoc multiple comparison tests. *P≤0.05, ^§P≤0.001 compared to control (CM). (D) Survival of hippocampal neurons treated with CM, 20ng/ml BDNF (B), 1000 nM LM22A-4 or 1000 nM PTX-BD4-3 with or without anti-TrkB antibody (Bab) or non-immune serum (non). n=37-42 wells per group derived from five independent experiments. *P≤0.05, **P≤0.01, ***P≤0.001 (non vs Bab), Mann-Whitney test; *P≤0.05, ^ψP≤0.01, ^§P≤0.001 (compared to CM), one-way ANOVA with Dunnett's post hoc multiple comparison test.
Hippocampal neuron cultures were prepared from E16 CF1 mouse fetuses as described previously ([Yang et al., 2006]). Under the low-density conditions used here, neuronal survival is dependent, in part, on addition of exogenous neurotrophins ([Yang et al., 2008]; [Walter et al., 2011]). LM22A-4 and PTX-BD4-3 were dissolved in water at a stock concentration of 10 mM prior to dilution (1:10,000) in culture medium. Cell survival following a 48-h exposure to BDNF, LM22A-4 or PTX-BD4-3 was quantified by either counting β-tubulin III-positive cell bodies ([Massa et al., 2006]; [Walter et al., 2011]) or by the ViaLight Assay described above.

TrkB = assay: Shc adaptor protein recruitment to TrkB in HCEMs (IP/western blot); type: cell-based, human; details: 1 h, compounds 1000 nM, BDNF 0.7 nM
Excerpt: Fig. 2. […] Scale bar: 10 μm. […] Scale bar: 10 μm.

[2] = tested on: 4 different strains of Salmonella typhimurium; assay: AMES DNA mutagenesis (Cerep); type: cell-based; details: 5, 10, 50 and 100 µM; 4 strains
Experimental: as §1, §2, §3, §4
(§5) Table S2. Solubility, metabolism and toxicity screens for LM22A-4 and PTX-BD4-3. Standardized assays of solubility, metabolic stability and in vitro toxicity were performed to further evaluate the potential of PTX-BD4-3 as a lead candidate molecule for the treatment of Rett syndrome, and to compare its profile to that of the parent compound LM22A-4. Aqueous solubility of both compounds, which is used as a surrogate measure of absorption, was at or near the assay maximum of 200 µM. The metabolic stability of both compounds at 10 µM was evaluated at 5 different time points in […] and found to be >60 min, indicating favorable stability. […]

hERG channels = biological target: T1, hERG channels (Homo sapiens, UniProt Q12809); assay: hERG testing (Cerep); type: cell-based; details: 0.1, 1 and 10 µM; >50% inhibition of the tail current = significant
T1 construct: Cerep, Inc. (contract screen)
T1 sequence (Q12809 whole entry): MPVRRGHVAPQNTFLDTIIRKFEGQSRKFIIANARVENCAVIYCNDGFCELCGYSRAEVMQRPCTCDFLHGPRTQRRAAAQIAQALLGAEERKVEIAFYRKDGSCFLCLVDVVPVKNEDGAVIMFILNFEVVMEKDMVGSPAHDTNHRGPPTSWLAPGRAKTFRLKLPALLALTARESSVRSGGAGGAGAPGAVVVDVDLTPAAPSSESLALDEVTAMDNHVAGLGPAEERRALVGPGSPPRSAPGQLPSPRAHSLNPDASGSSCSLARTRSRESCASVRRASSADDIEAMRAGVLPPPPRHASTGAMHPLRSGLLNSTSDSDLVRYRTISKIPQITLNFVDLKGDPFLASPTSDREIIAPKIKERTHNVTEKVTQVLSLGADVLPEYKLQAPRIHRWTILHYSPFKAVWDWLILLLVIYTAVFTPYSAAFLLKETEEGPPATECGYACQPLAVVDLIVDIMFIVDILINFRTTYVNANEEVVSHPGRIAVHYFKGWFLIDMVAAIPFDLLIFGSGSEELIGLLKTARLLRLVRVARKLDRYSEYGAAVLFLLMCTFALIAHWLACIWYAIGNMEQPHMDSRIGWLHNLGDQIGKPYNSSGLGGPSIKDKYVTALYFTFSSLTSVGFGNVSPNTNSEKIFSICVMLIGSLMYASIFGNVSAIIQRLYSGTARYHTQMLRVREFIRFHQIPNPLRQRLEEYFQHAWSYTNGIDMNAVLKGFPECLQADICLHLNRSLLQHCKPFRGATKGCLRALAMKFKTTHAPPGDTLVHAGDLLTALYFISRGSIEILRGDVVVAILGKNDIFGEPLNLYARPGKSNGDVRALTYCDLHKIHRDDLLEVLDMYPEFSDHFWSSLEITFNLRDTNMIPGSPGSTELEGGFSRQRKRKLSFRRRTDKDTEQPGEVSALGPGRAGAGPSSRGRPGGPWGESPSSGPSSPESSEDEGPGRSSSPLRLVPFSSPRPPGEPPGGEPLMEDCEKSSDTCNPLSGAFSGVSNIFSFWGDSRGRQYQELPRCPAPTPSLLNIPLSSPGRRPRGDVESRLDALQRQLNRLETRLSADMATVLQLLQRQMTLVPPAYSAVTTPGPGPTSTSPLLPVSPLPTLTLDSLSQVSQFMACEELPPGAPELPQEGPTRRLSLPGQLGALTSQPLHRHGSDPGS
Experimental: as §1, §2, §3, §4, §5

[3] = Aqueous solubility (Cerep); type: physicochemical; details: assay maximum 200 µM
Experimental: as §1, §2, §3, §4, §5

Compound	CYP inhibition (8 different CYP enzymes)	neurotrophic activity in the presence of function-blocking anti-TrkB^ECD antibody [1]	Shc recruitment to TrkB (ratio of Shc to TrkB) (TrkB)	AMES DNA mutagenesis [2]	hERG testing (cardiac toxicity) (hERG channels)	solubility [3]	maximum levels of neurotrophic activity ([1]; 48 h, ViaLight and Tuj1 counts, normalized to 20 ng/ml BDNF)	pEC50 ([1]; Mus musculus, Hippocampal neuron, 48 h, ViaLight and Tuj1 counts, read-out: half-maximal effective concentration (EC50), neurotrophic activity)
O=C(NCCO)c1cc(C(=O)NCCO)cc(C(=O)NCCO)c1 [LM22A-4, N,N′,N′′-tris(2-hydroxyethyl)-1,3,5-benzenetricarboxamide, reference compound]	negative	reduction	promoted Shc recruitment to TrkB	negative	negative	180 µM (≈ 61.2 µg/mL)		
COCCN(C)C(=O)c1cc(C(=O)N(C)CCOC)cc(C(=O)N(C)CCOC)c1 [PTX-BD4-3, benzene-1,3,5-tricarboxylic acid tris-[(2-methoxy-ethyl)-methyl-amide]]	negative	reduction	promoted Shc recruitment to TrkB	negative; also recorded: no activity	negative; also recorded: no activity	200 µM (≈ 84.7 µg/mL)	80-100 % of that of BDNF	6.30 to 6.52
